Consider 9 compounds from patent US11731977B2, “SGC stimulators” (Cyclerion Therapeutics, Inc., priority 2016, dated 2023).

In series [1] the target is T1, sGC enzyme (Homo sapiens, UniProt Q02108+Q02153).
T1 construct: sGC enzyme activity values in HEK cells, determined by the GloSensor assay; host or cells: HEK293 cells stably expressing GloSensor 40F cGMP biosensor
T1 sequence (Q02153 1-619): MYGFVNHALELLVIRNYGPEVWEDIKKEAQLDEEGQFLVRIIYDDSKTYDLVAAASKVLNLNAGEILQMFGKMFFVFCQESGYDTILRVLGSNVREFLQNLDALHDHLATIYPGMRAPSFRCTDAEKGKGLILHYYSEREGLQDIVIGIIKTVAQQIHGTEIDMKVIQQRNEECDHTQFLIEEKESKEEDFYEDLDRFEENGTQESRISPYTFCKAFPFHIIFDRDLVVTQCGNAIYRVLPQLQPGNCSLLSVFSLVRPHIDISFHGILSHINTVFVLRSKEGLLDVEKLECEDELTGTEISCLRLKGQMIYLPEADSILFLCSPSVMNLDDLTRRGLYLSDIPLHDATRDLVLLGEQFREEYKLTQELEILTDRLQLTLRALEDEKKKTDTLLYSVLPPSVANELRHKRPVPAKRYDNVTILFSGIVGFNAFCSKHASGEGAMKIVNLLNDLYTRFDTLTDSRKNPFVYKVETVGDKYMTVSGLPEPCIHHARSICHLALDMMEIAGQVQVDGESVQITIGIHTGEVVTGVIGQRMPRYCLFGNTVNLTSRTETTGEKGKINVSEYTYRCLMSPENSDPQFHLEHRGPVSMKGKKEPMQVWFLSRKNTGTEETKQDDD
T1 sequence (Q02108 1-690): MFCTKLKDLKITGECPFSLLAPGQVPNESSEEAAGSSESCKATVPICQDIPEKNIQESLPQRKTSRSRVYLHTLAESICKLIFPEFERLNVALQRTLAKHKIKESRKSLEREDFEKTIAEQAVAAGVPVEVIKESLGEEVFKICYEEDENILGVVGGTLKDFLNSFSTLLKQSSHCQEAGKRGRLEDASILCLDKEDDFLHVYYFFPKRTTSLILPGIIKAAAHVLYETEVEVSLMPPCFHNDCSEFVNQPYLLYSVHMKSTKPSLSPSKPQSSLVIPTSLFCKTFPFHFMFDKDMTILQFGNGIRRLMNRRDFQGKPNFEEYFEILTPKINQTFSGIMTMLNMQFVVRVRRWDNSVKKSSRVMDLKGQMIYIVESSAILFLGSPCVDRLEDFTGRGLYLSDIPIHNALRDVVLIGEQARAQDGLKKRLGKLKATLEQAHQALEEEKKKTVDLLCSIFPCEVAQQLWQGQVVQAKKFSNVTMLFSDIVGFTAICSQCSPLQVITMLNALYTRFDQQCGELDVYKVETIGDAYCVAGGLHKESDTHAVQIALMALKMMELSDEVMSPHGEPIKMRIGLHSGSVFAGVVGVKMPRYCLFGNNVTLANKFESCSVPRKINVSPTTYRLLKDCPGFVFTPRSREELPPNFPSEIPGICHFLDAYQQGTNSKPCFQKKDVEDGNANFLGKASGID
Put plainly: cGMP GloSensor cell-based assay, 384-well format (Example 2a). The note with it: HEK293 GloSensor 40F cGMP cells; 10 μM DETA-NONOate; 50% of high control (30 μM Compound Y); read-out: Abs EC50. From the text: Human embryonic kidney cells (HEK293) cells expressing GloSensor™ 40F cGMP (Part No: CS182801, Promega) were used to evaluate the activity of test compounds. The luminescent biosensors (engineered luciferase) that were incorporated into these cells detect cGMP formed by the compounds stimulating the sGC enzyme and emit luminescence.
cGMP GloSensor cells were maintained in Dulbecco's Modification of Eagle's Medium (DMEM) supplemented with fetal bovine serum (FBS, 10% final) and hygromycine (200 ug/ml). The day before assay, cells were plated in DMEM with 10% FBS in a 50 μL volume at a density of 1.5×10^4 cells/well in a poly-D-lysine coated 384-well flat white-bottom plate (Corning Cat No 35661). Cells were incubated overnight at 37° C. in a humidified chamber with 5% CO2. The next day, medium was removed and cells were replaced with 40 ul/well of GloSensor™, 2 mM (Promega Cat No E1291). Cells were treated for 90 minutes at 25° C. to allow the substrate to equilibrate in the cells. Test compounds and Diethylenetriamine NONOate (DETA-NONOate, or DETA-NO) was diluted to 3 mM (20×) in serum-free CO2 independent medium and serially diluted at 4× dilutions to create 5× dose curve from which 10 ul was added to the wells (x μM concentration for test compound solution and 10 μM concentration for DETA-NONOate solution; wherein x is one of the following final concentrations: 30000 nM, 7500 nM, 1875 nM, 468.8 nM, 117.2 nM, 29.29 nM, 7.320 nM, 1.830 nM, 0.460 nM, 0.114 nM, and 0.029 nM).
For the kinetics studies, luminescense was measured right away for 0.2 sec per well with Envision (Perkin Elmer). For endpoint SAR screening, data were collected after 55 min incubation at room temperature.
Data were normalized to a high control using the following equation: 100*(Sample−Low Control)/(High Control−Low Control), where the low control is the average of 16 samples treated with 1% DMSO, and the high control is the average of 16 samples treated with 30 μM of Compound Y depicted below. Data were fit using a 4-parameter fit (log(agonist) vs. response—variable slope) using GraphPad Prism Software v.5. n=2 for all compounds. The Absolute (Abs) EC50 was interpolated from the curve fit and is defined as the concentration at which a given compound elicits 50% of the high control response after data normalization as indicated above. Compounds failing to elicit a minimum response of 50% are reported as >30 μM or ND. For compounds run in duplicate or n higher than 2, the result herein given is the geometric mean of the several results obtained.

Series [2] deals with cGMP in rat primary neurons. Put plainly: cGMP neuronal cell-based assay (Example 3). As to conditions: Primary neuron; rat primary hippocampal neurons; 30 μM DETA-NO; cGMP by LC-MS/MS; 50% of high control (10 μM Compound Y); read-out: Abs EC50. The protocol:
Rat primary neurons were isolated from fetuses of 18-day pregnant Sprague-Dawley females. The fetuses were collected in Hanks' balanced salt solution (HBSS) and brains were rapidly removed. The cerebral hippocampi were isolated and mechanically fragmented. Further tissue digestion was performed with 0.25% (wt/vol) trypsin solution in HBSS without Ca2+ and Mg2+ for 15 min at 37° C. After trypsination, cells were washed and resuspended in neurobasal medium supplemented with 0.5 mM L-glutamine, 12.5 uM glutamic acid, 2% B-27 and 100 U/mL penicillin, and 100 μg/mL streptomycin. Cells were plated at a density of 4×10^4 cells/well in a poly-D-lysine coated 384-well flat clear-bottom plate (Corning Cat No 354662). Cells were incubated 6-7 days at 37° C. in a humidified chamber with 5% CO2. Media was removed and cells were washed 1× with HBSS containing Ca2+ and Mg2+, and replaced with 40 uL HBSS containing 0.5 mM IBMX, and incubated for 15 minutes at 37° C. 10 uL of a 5× stock of test compounds with diethylenetriamine NONOate (DETA-NO) was added. Final concentration of DETA-NO was 30 μM. Cells were incubated for 20 min at 37° C. Medium was removed, 50 uL of ice-cold 10% acetic acid was added, and incubated for 60 minutes at 4° C. Following centrifugation at 4° C. for 5 minutes at 1000×g to pellet cell debris, the supernatant was aspirated to a clean plate and the samples were analyzed for cGMP content. cGMP concentrations were determined from each sample using LC-MS/MS.
Data were normalized to a high control using the following equation: 100*(Sample−Low Control)/(High Control−Low Control), where the low control is the average of 15 samples treated with 1% DMSO, and the high control is the average of 15 samples treated with 10 μM a known sGC stimulator Compound Y. Data were fit using a 4-parameter fit (log(agonist) vs. response—variable slope) using GraphPad Prism Software v.5. n=2 for all compounds. The Absolute EC50 was interpolated from the curve fit and is defined as the concentration at which a given compound elicits 50% of the high control response. Compounds failing to elicit a minimum response of 50% are reported as >30 μM. For compounds run in duplicate or n higher than 2, the result herein given is the geometric mean of the several results obtained.

Series [3] can be described thus: Rat cerebrospinal fluid (CSF) pharmacokinetic properties (Example 4). Format: in vivo. As to conditions: male, Sprague-Dawley, 10 mg/kg PO, 1 h; for Kp uu at 1 h: unbound CSF/unbound plasma, read-out: Kp,uu (@ 1 h); for concentration at 1 h: CSF, read-out: CSF Conc. (nM @ 1 h). The protocol: Protocol PK in rats was determined following oral dosing. For the oral (PO) experiments, a group of 6 male Sprague-Dawley rats with an indwelling catheter placed in the cistema magna were used. The PO group was dosed with 10 mg/kg or 1 mg/kg of a compound formulated as a solution in PEG400. PO doses were administered by oral gavage and delivered to the stomach using a syringe and gavage tube. Following oral dosage administration, the gavage tube was flushed with approximately 0.5 mL of water to ensure complete delivery of the full dose.
Plasma samples were collected as follows: samples of CSF and blood were collected at 1 hour, 2, and optionally at 4 hours post-dosing. CSF samples (0.05 mL) were collected through the intracisternal catheter. Blood samples (0.25 mL) were collected through retro-orbital sampling. These samples were kept on ice until processed for plasma. Blood samples were centrifuged at 3200 rpm for 5 minutes at approximately 5° C. within 1 hour of collection. Plasma was directly transferred to a 96-well plate tube (0.125 mL). Plug caps were placed on the tubes and the tubes frozen at approximately −70° C. and stored until analysis. Plasma was collected and analyzed for the presence of a compound.
Quantitation of Compounds. The compound in question and the internal standard were extracted from plasma and CSF by precipitation. Samples were analyzed using liquid chromatography (LC) with tandem mass spectrometric detection (MS/MS) using electrospray ionization. The standard curve range was from 1 to 1000 ng/mL. Results of the compounds described herein in this assay are illustrated in Table 4a below (10 mg/kg dose) and Tables 4b and 4c below (1 mg/kg).
Kp,uu is defined as the concentration ratio of unbound drug in CSF to unbound drug in plasma. Unbound drug in plasma (or free plasma concentration) is calculated by multiplying the total plasma concentration by the unbound fraction as determined by plasma protein binding. The CSF concentration is then divided by the free plasma concentration to determine the Kp,uu. (See e.g., Di et al., J. Med. Chem., 56, 2-12 (2013))

Regarding `Fc1ccccc1Cc1nc(-c2nc(C(F)(F)C(F)(F)F)n[nH]2)cn2ccnc12` [Compound I-5, 8-(2-Fluorobenzyl)-6-(3-(perfluoroethyl)-1H-1,2,4-triazol-5-yl)imidazo[1,2-a]pyrazine], the EC50 in series [1] and in series [2] was at most 100 nM in each case.

As for `Cc1ccc(Cc2nc(-c3nc(C(F)(F)F)n[nH]3)cn3ccnc23)cc1F` [Compound I-27, 8-(3-Fluoro-4-methylbenzyl)-6-(3-(trifluoromethyl)-1H-1,2,4-triazol-5-yl)imidazo[1,2-a]pyrazine], in series [1], the EC50 (as a rule, the midpoint of the concentration-response curve) is at most 100 nM. For the same compound, in series [3], the Kp uu at 1 h stood at 0.2 and the concentration at 1 h came to 41 nM.

`Cc1ccc(Cc2nc(-c3nc(C(F)F)n[nH]3)cn3ccnc23)cc1F` [Compound I-28, 6-(3-(Difluoromethyl)-1H-1,2,4-triazol-5-yl)-8-(3-fluoro-4-methylbenzyl)imidazo[1,2-a]pyrazine]: in series [1], the EC50 is at most 100 nM. For the same compound, in series [3], the Kp uu at 1 h was 0.2 and the concentration at 1 h is 20 nM.

For `Fc1ccc(F)c(Cc2nc(-c3nc(C(F)(F)F)n[nH]3)cn3ccnc23)c1` [Compound I-8, 8-(2,5-Difluorobenzyl)-6-(3-(trifluoromethyl)-1H-1,2,4-triazol-5-yl)imidazo[1,2-a]pyrazine], the EC50 in series [1] and in series [2] was at most 100 nM in each case.

`Fc1ccc(Cc2nc(-c3nc(C(F)(F)F)n[nH]3)cn3ccnc23)cc1` [Compound I-12, 8-(4-Fluorobenzyl)-6-(3-(trifluoromethyl)-1H-1,2,4-triazol-5-yl)imidazo[1,2-a]pyrazine]: the EC50 in series [1] and in series [2] was 100 to 1000 nM in each case.

As for `FC(F)c1n[nH]c(-c2cn3ccnc3c(Cc3ccccc3)n2)n1` [Compound I-7, 8-Benzyl-6-(3-(difluoromethyl)-1H-1,2,4-triazol-5-yl)imidazo[1,2-a]pyrazine], the EC50 in series [1] and in series [2] was 100 to 1000 nM throughout.

On to `FC(F)(F)c1n[nH]c(-c2cn3ncnc3c(Cc3ccccc3)n2)n1` [Compound I-15, 8-Benzyl-6-(3-(trifluoromethyl)-1H-1,2,4-triazol-5-yl)-[1,2,4]triazolo[1,5-a]pyrazine], for which the EC50 in series [1] and in series [2] was 100 to 1000 nM in each case.

For the compound `Fc1ccc(F)c(Cc2nc(-c3nc(C(F)F)n[nH]3)cn3ccnc23)c1` [Compound I-9, 8-(2,5-Difluorobenzyl)-6-(3-(difluoromethyl)-1H-1,2,4-triazol-5-yl)imidazo[1,2-a]pyrazine], the EC50 in series [1] and in series [2] was at most 100 nM each time.

Consider `FC(F)(F)c1n[nH]c(-c2cn3ccnc3c(Cc3ccccc3)n2)n1` [Compound I-6, 8-Benzyl-6-(3-(trifluoromethyl)-1H-1,2,4-triazol-5-yl)imidazo[1,2-a]pyrazine], for which the EC50 was 100 to 1000 nM in series [1] and at most 100 nM in series [2].
